Experimental data from ChEMBL document CHEMBL1921711, “Transformation of quercitols into 4-methylenecyclohex-5-ene-1,2,3-triol derivatives, precursors for the chemical chaperones N-octyl-4-epi-β-valienamine (NOEV) and N-octyl-β-valienamine (NOV)” (Bioorg Med Chem Lett, 2011).
The source made the active and inactive calls. The rule behind the calls is not given here.

How the values were obtained:
Alpha-galactosidase = Alpha-galactosidase (Coffea arabica, UniProt Q42656); assay: Inhibition of green coffee beans alpha-galactosidase by spectrometry
Sequence of Alpha-galactosidase (Q42656 whole entry): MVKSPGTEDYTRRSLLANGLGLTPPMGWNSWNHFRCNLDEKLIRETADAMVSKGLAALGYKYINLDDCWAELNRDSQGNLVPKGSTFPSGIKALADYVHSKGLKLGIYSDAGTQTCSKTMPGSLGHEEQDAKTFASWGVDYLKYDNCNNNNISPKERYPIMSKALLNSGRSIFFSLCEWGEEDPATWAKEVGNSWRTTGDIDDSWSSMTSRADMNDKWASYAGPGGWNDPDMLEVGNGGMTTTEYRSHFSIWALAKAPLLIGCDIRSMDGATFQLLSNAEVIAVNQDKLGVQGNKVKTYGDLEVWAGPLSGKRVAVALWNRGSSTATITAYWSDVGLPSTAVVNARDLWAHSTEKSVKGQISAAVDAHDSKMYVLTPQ

Beta-galactosidase [1] = biological target: T1, Beta-galactosidase (Bos taurus, UniProt Q58D55); assay: Inhibition of bovine liver beta-galactosidase by spectrometry
T1 sequence (Q58D55 whole entry): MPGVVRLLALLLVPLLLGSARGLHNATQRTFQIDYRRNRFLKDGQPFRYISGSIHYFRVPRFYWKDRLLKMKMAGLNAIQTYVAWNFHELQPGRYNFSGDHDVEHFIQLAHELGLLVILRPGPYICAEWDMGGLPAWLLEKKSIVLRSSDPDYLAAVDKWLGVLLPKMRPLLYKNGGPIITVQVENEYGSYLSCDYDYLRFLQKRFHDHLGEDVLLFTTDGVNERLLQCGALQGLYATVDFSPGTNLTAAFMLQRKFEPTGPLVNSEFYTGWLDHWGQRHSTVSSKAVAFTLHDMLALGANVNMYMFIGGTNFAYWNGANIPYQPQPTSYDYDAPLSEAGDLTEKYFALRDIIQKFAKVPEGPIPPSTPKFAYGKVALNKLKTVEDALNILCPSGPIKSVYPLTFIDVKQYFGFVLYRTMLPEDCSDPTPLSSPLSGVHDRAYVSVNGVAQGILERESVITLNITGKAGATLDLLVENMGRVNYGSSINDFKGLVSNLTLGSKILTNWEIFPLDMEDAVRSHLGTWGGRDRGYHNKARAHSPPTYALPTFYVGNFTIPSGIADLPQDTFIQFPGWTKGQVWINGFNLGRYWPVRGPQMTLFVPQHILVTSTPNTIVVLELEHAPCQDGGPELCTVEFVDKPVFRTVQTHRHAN

Helix pomatia = assay: Inhibition of helix pomatia beta-mannosidase by spectrometry
Prunus dulcis = assay: (§1) Inhibition of almonds beta-glucosidase by spectrometry
[2] = as §1; parameters: species or system Prunus dulcis
Canavalia ensiformis = assay: Inhibition of jack beans alpha-mannosidase by spectrometry
Beta-galactosidase [3] = biological target: T2, Beta-galactosidase (Aspergillus oryzae, UniProt Q2U7N3); assay: Inhibition of Aspergillus oryzae beta-galactosidase by spectrometry
T2 sequence (Q2U7N3 whole entry): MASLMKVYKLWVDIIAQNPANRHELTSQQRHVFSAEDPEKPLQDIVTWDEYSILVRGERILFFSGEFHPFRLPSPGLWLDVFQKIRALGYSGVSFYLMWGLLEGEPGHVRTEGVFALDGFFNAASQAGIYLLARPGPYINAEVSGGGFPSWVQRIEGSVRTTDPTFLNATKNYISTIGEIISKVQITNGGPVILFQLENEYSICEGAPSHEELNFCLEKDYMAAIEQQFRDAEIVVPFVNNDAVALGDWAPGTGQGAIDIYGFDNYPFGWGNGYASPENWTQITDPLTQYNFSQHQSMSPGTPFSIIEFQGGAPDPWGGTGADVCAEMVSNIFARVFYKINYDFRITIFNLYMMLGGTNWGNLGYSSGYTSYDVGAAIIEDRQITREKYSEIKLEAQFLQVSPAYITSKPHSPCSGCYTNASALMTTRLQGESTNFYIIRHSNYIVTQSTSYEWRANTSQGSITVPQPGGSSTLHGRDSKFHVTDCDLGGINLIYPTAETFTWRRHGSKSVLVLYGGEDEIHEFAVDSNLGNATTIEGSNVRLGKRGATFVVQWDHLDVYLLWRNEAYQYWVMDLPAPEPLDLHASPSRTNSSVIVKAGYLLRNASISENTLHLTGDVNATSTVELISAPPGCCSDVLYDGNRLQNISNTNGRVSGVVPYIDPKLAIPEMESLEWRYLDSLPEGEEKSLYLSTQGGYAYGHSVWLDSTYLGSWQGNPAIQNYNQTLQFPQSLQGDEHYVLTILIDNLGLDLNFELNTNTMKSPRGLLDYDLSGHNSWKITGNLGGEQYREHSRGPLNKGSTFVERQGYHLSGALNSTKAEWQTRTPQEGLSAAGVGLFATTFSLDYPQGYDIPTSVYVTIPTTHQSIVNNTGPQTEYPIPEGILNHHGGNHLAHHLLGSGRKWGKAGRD

Homo sapiens = species: Homo sapiens; assay: Inhibition of human placental alpha-fucosidase by spectrometry

Structure (SMILES)	IC50 (Alpha-galactosidase)	IC50 (Beta-galactosidase [1])	inhibition (Helix pomatia)	inhibition (Prunus dulcis)	IC50 [2]	inhibition (Canavalia ensiformis)	IC50 (Beta-galactosidase [3])	inhibition (Homo sapiens)
CCCCCCCCN[C@@H]1C=C(CO)[C@H](O)[C@H](O)[C@H]1O	4.5 µM	4.5 µM	inactive	Active	8.1 µM	inactive	85 µM	inactive
CCCCCCCCN[C@@H]1C=C(CO)[C@@H](O)[C@H](O)[C@H]1O	> 1000 µM	2.9 µM	–	–	47 µM	–	–	–
